Patent US4694069A, “Kibdelosporangium aridum SK&F-AAD-609” (SmithKline Beckman Corporation, priority 1985, dated 1987)
In brackets after ≈: the same amount, converted by molar mass. Where two headings read alike, the source gives them in different places. Each block holds one compound with its values, some of them ahead of it. Bridge positions count the residues as written; N and C are the ends. Square brackets hold non-standard residues; d marks the D form. Peptide text beside a SMILES is read from it. * marks the point of attachment. Ileψ(thiazoline)Cys = CC[C@H](C)[C@H](N)C1=N[C@H](C(=O)*)CS1; dOrn = NCCC[C@@H](N)C(=O)O

Legend:
S. aureus 209P = test: In vitro MIC, standard microtiter assay; format: cell-based, Staphylococcus aureus; settings: Staphylococcus aureus, 209P
Text: (§1) In vitro minimum inhibitory concentrations (MIC) of the AAD-609 complex and of Factors A, B, CC2 and D, using standard microtiter assay procedures, against a number of microorganisms are reported in Table A, which follows.

S. aureus 675 = test: In vitro MIC, standard microtiter assay; format: cell-based, Staphylococcus aureus; settings: Staphylococcus aureus, 675
Text: as §1

[1] = system: S. aureus 910 (methicillin resistant strain); test: In vitro MIC, standard microtiter assay; format: cell-based, Staphylococcus aureus; settings: Staphylococcus aureus
Text: as §1

S. aureus 674 = test: In vitro MIC, standard microtiter assay; format: cell-based, Staphylococcus aureus; settings: Staphylococcus aureus, 674
Text: as §1

[2] = 30:70 acetonitrile:water
[3] = system: S. aureus 2620 (methicillin resistant strain); test: MIC; format: cell-based; settings: Staphylococcus aureus
Text: as §1

S. faecalis 34358 [4] = test: In vitro MIC, standard microtiter assay; format: cell-based, Streptococcus faecalis
Text: as §1

[5] = mouse, in vivo
[6] = system: Streptococcus faecalis 657; test: In vitro MIC, standard microtiter assay; format: cell-based; settings: Enterococcus faecalis, 657
Text: as §1

Clostridium difficile = test: In vitro MIC, standard microtiter assay; format: cell-based; settings: Clostridioides difficile
Text: as §1

S. epidermidis 2265 = test: In vitro MIC, standard microtiter assay; format: cell-based; settings: Staphylococcus epidermidis, 2265
Text: as §1

Escherichia coli 12140 = test: In vitro MIC, standard microtiter assay; format: cell-based; settings: Escherichia coli, 12140
Text: as §1

S. epidermidis 2479 [7] = test: In vitro MIC, standard microtiter assay; format: cell-based
Text: as §1

[8] = system: S. epidermidis 651 (methicillin resistant strain); test: In vitro MIC, standard microtiter assay; format: cell-based
Text: as §1

S. epidermidis 2683 = test: In vitro MIC, standard microtiter assay; format: cell-based; settings: Staphylococcus epidermidis, 2683
Text: as §1

[9] = system: Staphylococcus aureus HH127; test: In vitro MIC, standard microtiter assay; format: cell-based
Text: as §1

[10] = system: Salmonella gallinarum BC-595; test: In vitro MIC, standard microtiter assay; format: cell-based; settings: Salmonella enterica, GALLINARUM
Text: as §1

pigs = settings: pig, in vivo; cited from earlier work
[11] = comparators, source not given; cited from earlier work
[12] = system: S. aureus 2620 (methicillin resistant strain); test: Mouse protection test; format: in vivo; settings: Staphylococcus aureus, sc
Text: (§2) in mouse protection tests^1
(§3) ^1 Mice dosed 1 and 5 H post infection s.c.; ED50, mg/kg.

S. epidermidis 2479 [13] = test: Mouse protection test; format: in vivo; settings: Staphylococcus epidermidis, 2479, sc
Text: as §2, §3

[14] = system: S. epidermidis 651 (methicillin resistant strain); test: Mouse protection test; format: in vivo; settings: Staphylococcus epidermidis, sc
Text: as §2, §3

S. faecalis 34358 [15] = test: Mouse protection test; format: in vivo; settings: Enterococcus faecalis, 34358, sc
Text: as §2, §3

S. aureus HH127 = test: Mouse protection test; format: in vivo; settings: Staphylococcus aureus, HH127, sc
Text: as §2, §3

SK&F-AAD-609 = test: Susceptibility of SK&F-AAD-609 to antibiotics (diffusion method, BBL susceptibility disks); format: cell-based, Kibdelosporangium aridum subsp. largum; settings: disk 30 μg; 28° C., one week
Procedure: Susceptibility of SK&F-AAD-609 to antibiotics was examined by placing BBL susceptibility disks on nutrient agar plates seeded with SK&F-ADD-609 as an agar overlay. Plates were placed at 4° C. for one hour to permit diffusion of the anitbiotics and, subsequently, incubated at 28° C. Diameters of the zones of inhibition were measured after incubation for one week.
Susceptibility to Antibiotics. […] Chlortetracycline (5 μg) produced 17-18 mm zones of inhibition; tetracycline (5 μg) 9-12 mm zones; rifampin (5 μg) 10-12 mm zones; novobiocin (5 μg) 30-35 mm zones. All zones of inhibition contained at least a few resistant colonies.

[16] = Table B, methicillin resistant strain

MIC (S. aureus 209P; Table A, read-out: MIC): 0.4 µg/mL (≈ 0.225 µM)
MIC (S. aureus 675; Table A, read-out: MIC): 6.3 µg/mL (≈ 3.55 µM)
MIC ([1]; Table A, methicillin resistant strain, read-out: MIC): 1.6 µg/mL (≈ 0.901 µM)
MIC (S. aureus 674; Table A, read-out: MIC): 0.8 µg/mL (≈ 0.451 µM)
pKa (A) carboxyl on aglycone [2]: 3.4
pKa (C) amino group on aglycone [2]: 7.1
MIC ([3]; Table B, methicillin resistant strain, read-out: MIC): 2 µg/mL (≈ 1.13 µM)
MIC (S. faecalis 34358 [4]; Enterococcus faecalis, 34358, Table A, read-out: MIC): 0.4 µg/mL (≈ 0.225 µM)
MIC (S. faecalis 34358 [4]; Table B): 0.4 µg/mL (≈ 0.225 µM)
Elimination half-life [5]: 116 min
Maximum serum concentration [5]: 90 µg/mL
MIC ([6]; Table A, read-out: MIC): 0.4 µg/mL (≈ 0.225 µM)
MIC (Clostridium difficile; Table A, read-out: MIC): 0.5 µg/mL (≈ 0.282 µM)
MIC (S. epidermidis 2265; Table A, read-out: MIC): 25 µg/mL (≈ 14.1 µM)
MIC (Escherichia coli 12140; Table A, read-out: MIC): > 100 µg/mL
MIC (S. epidermidis 2479 [7]; Staphylococcus epidermidis, 2479, Table A, read-out: MIC): 12.5 µg/mL (≈ 7.04 µM)
MIC (S. epidermidis 2479 [7]; Table B): 12.5 µg/mL (≈ 7.04 µM)
MIC ([8]; Staphylococcus epidermidis, Table A, methicillin resistant strain, read-out: MIC): 50 µg/mL (≈ 28.2 µM)
MIC [8, 16]: 50 µg/mL (≈ 28.2 µM)
MIC (S. epidermidis 2683; Table A, read-out: MIC): 24 µg/mL (≈ 13.5 µM)
MIC ([9]; Staphylococcus aureus, HH127, Table A, read-out: MIC): 1.6 µg/mL (≈ 0.901 µM)
MIC ([9]; Table B): 1.6 µg/mL (≈ 0.901 µM)
MIC ([10]; Table A, read-out: MIC): > 100 µg/mL
SMILES: CCCCCCCCCC(=O)NC1C(Oc2c3cc4cc2Oc2c(Cl)cc(cc2Cl)C(O)C2NC(=O)C(NC(=O)C4NC(=O)C4NC(=O)C(NC(=O)C(NC)c5ccc(O)c(c5)Oc5cc(O)c(Cl)c4c5)C(O)c4ccc(c(Cl)c4)O3)c3ccc(O)c(c3)-c3c(OC4OC(CO)C(O)C(O)C4O)cc(O)cc3C(C(=O)O)NC2=O)OC(CO)C(O)C1O (stereo not shown) [AAD-609 A]

SMILES: CC[C@H](C)[C@H](N)C1=N[C@H](C(=O)N[C@@H](CC(C)C)C(=O)N[C@H](CCC(=O)O)C(=O)N[C@H](C(=O)N[C@H]2CCCCNC(=O)[C@H](CC(N)=O)NC(=O)[C@@H](CC(=O)O)NC(=O)[C@H](Cc3cnc[nH]3)NC(=O)[C@@H](Cc3ccccc3)NC(=O)[C@H]([C@@H](C)CC)NC(=O)[C@@H](CCCN)NC2=O)[C@@H](C)CC)CS1 [Bacitracin, bacitracin] ({Ileψ(thiazoline)Cys}-L[dE]IK[dOrn]I[dF]H[dD]N; lactam 4-C)
Growth promotion in pigs (in words) (pigs): known growth promoter in pigs

SMILES: CN[C@H](CC(C)C)C(=O)N[C@H]1C(=O)N[C@@H](CC(N)=O)C(=O)N[C@H]2C(=O)N[C@H]3C(=O)N[C@H](C(=O)N[C@H](C(=O)O)c4cc(O)cc(O)c4-c4cc3ccc4O)[C@H](O)c3ccc(c(Cl)c3)Oc3cc2cc(c3O[C@@H]2O[C@H](CO)[C@@H](O)[C@H](O)[C@H]2O[C@H]2C[C@](C)(N)[C@H](O)[C@H](C)O2)Oc2ccc(cc2Cl)[C@H]1O [Vancomycin, vancomycin]
Isoelectric point [11]: 8.2
MIC (S. aureus 209P): 0.8 µg/mL (≈ 0.552 µM)
MIC (S. aureus 675): 3.1 µg/mL (≈ 2.14 µM)
MIC [1]: 1.6 µg/mL (≈ 1.1 µM)
MIC (S. aureus 674): 1.6 µg/mL (≈ 1.1 µM)
MIC [3]: 2 µg/mL (≈ 1.38 µM)
Elimination half-life (Pharmacokinetics in mice; mice): 20 min
Cmax (Pharmacokinetics in mice; mouse, serum): 30000 ng/mL
MIC (S. faecalis 34358 [4]; Enterococcus faecalis, 34358): 3.1 µg/mL (≈ 2.14 µM)
MIC (S. faecalis 34358 [4]; Table B): 3.1 µg/mL (≈ 2.14 µM)
ED50 [12]: 6.7 mg/kg
ED50 (S. epidermidis 2479 [13]): 4.1 mg/kg
ED50 [14]: 4.8 mg/kg
ED50 (S. faecalis 34358 [15]): 12.5 mg/kg
ED50 (S. aureus HH127): 1.4 mg/kg
MIC [6]: 3.1 µg/mL (≈ 2.14 µM)
MIC (Clostridium difficile): 2 µg/mL (≈ 1.38 µM)
MIC (S. epidermidis 2265): 1.6 µg/mL (≈ 1.1 µM)
MIC (Escherichia coli 12140): > 100 µg/mL
MIC (S. epidermidis 2479 [7]; Staphylococcus epidermidis, 2479): 3.1 µg/mL (≈ 2.14 µM)
MIC (S. epidermidis 2479 [7]; Table B): 3.1 µg/mL (≈ 2.14 µM)
MIC ([8]; Staphylococcus epidermidis): 3.1 µg/mL (≈ 2.14 µM)
MIC [8, 16]: 3.1 µg/mL (≈ 2.14 µM)
MIC (S. epidermidis 2683): 3.1 µg/mL (≈ 2.14 µM)
MIC ([9]; Staphylococcus aureus, HH127): 1.6 µg/mL (≈ 1.1 µM)
MIC ([9]; Table B): 1.6 µg/mL (≈ 1.1 µM)
MIC [10]: 100 µg/mL (≈ 69 µM)
Susceptibility (diffusion method) (SK&F-AAD-609): resistant
